Experimental data taken from ChEMBL document CHEMBL1128915, “2-cyanopyrrolidides as potent, stable inhibitors of dipeptidyl peptidase IV” (Bioorg Med Chem Lett, 1996).
pKi: −log10 of the molar value.

System: not listed separately
Assay: Half-life in aqueous solution(pH 7.4).
Assay type: ADME

| half-life [h] | SMILES |
| --- | --- |
| 24 | N#C[C@@H]1CCCN1C(=O)[C@@H](N)CCCCN |
| 7.5 | N#C[C@@H]1CCCN1C(=O)[C@@H]1CCCN1 |
| 1.5 | O=C([C@@H]1CCCN1)N1CCC[C@H]1B(O)O |
| > 48 | N#C[C@@H]1CCCN1C(=O)[C@@H](N)C1CCCCC1 |

Second part, the molecule before the results:

| SMILES | half-life [h] |
| --- | --- |
| C[C@H](N)C(=O)N1CCC[C@H]1B(O)O | 0.5 |
| CC[C@H](C)[C@H](N)C(=O)N1CCC[C@H]1C#N | 48 |
| CC(C)(C)[C@H](N)C(=O)N1CCC[C@H]1C#N | > 48 |

Biological target: Dipeptidyl peptidase 4 (Homo sapiens, UniProt P27487)
Assay: In vitro test for inhibitory activity against human dipeptidyl peptidase IV.

Sequence of Dipeptidyl peptidase 4 (P27487 whole entry): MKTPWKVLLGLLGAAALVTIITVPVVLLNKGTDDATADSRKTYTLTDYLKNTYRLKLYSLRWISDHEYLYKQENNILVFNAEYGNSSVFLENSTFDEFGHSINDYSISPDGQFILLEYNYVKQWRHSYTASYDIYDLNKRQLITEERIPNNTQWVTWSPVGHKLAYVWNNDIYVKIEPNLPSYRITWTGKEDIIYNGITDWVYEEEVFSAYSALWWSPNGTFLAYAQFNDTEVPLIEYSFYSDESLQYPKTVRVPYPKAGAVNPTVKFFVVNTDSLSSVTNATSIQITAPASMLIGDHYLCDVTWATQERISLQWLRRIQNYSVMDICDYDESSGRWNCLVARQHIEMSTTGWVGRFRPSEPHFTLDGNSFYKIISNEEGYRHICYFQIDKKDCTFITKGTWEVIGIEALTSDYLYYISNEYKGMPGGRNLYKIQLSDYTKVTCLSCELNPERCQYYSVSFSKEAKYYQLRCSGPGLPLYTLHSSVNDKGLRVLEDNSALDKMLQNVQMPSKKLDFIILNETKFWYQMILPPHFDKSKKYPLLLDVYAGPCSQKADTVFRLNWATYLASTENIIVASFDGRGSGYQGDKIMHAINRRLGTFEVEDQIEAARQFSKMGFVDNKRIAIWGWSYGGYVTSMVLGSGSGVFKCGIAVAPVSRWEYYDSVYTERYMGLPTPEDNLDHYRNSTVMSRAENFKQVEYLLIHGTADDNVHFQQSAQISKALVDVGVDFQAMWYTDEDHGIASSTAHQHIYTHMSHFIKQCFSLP

| pKi | SMILES |
| --- | --- |
| 5.57 | N[C@@H](CCC(=O)OCc1ccccc1)C(=O)N1CCCC1 |
| 6.05 | CNC(C(=O)N1CCCC1)[C@H](C)O (some centres not stated) |
| 4.84 | N[C@@H](CC(=O)O)C(=O)N1CCCC1 |
| 6.04 | NCCC[C@H](NC(=O)OCc1ccccc1)C(=O)N1CCCC1 |
| 5.22 | O=C([C@H](CO)NCc1ccccc1)N1CCCC1 |
| 8.28 | N#C[C@@H]1CCCN1C(=O)[C@@H](N)CCCCN |
| 6.28 | NCCCC[C@H](NC(=O)OCc1ccccc1)C(=O)N1CCCC1 |
| 8.52 | O=C([C@@H]1CCCN1)N1CCC[C@H]1B(O)O |
| 5.15 | C[C@H](N)C(=O)N1CCCC1 |

The next lines start with the molecule.

| SMILES | pKi |
| --- | --- |
| NC(C(=O)N1CCCC1)C1CCCC1 (configuration not stated) | 6.68 |
| N[C@@H](CCC(=O)O)C(=O)N1CCCC1 | 5.70 |
| CCCC[C@H](N)C(=O)N1CCCC1 | 5.92 |
| N[C@H](C(=O)N1CCCC1)c1ccccc1 | 5.28 |
| CC(C)(C)[C@H](N)C(=O)N1CCCC1 | 6.06 |
| C[C@@H](O)[C@H](N)C(=O)N1CCCC1 | 5.31 |
